Laboratory results from ChEMBL document CHEMBL1201862, “PubChem BioAssay data set” (2004).
Values belong to the compound of their own block, whether it stands above or below them. Calls of active or inactive are those of the source.

Assays:
[1] = molecular target: T1, Voltage-gated N-type calcium channel alpha-1B subunit/Amyloid beta A4 precursor protein-binding family A member 1 (Homo sapiens, UniProt Q00975+Q02410); assay: disruptors of Mint-PDZ/N-type channel peptide interaction – biochemical, HTRF, SAR follow-up (AID 2489); format: functional
T1 sequence (Q00975 whole entry): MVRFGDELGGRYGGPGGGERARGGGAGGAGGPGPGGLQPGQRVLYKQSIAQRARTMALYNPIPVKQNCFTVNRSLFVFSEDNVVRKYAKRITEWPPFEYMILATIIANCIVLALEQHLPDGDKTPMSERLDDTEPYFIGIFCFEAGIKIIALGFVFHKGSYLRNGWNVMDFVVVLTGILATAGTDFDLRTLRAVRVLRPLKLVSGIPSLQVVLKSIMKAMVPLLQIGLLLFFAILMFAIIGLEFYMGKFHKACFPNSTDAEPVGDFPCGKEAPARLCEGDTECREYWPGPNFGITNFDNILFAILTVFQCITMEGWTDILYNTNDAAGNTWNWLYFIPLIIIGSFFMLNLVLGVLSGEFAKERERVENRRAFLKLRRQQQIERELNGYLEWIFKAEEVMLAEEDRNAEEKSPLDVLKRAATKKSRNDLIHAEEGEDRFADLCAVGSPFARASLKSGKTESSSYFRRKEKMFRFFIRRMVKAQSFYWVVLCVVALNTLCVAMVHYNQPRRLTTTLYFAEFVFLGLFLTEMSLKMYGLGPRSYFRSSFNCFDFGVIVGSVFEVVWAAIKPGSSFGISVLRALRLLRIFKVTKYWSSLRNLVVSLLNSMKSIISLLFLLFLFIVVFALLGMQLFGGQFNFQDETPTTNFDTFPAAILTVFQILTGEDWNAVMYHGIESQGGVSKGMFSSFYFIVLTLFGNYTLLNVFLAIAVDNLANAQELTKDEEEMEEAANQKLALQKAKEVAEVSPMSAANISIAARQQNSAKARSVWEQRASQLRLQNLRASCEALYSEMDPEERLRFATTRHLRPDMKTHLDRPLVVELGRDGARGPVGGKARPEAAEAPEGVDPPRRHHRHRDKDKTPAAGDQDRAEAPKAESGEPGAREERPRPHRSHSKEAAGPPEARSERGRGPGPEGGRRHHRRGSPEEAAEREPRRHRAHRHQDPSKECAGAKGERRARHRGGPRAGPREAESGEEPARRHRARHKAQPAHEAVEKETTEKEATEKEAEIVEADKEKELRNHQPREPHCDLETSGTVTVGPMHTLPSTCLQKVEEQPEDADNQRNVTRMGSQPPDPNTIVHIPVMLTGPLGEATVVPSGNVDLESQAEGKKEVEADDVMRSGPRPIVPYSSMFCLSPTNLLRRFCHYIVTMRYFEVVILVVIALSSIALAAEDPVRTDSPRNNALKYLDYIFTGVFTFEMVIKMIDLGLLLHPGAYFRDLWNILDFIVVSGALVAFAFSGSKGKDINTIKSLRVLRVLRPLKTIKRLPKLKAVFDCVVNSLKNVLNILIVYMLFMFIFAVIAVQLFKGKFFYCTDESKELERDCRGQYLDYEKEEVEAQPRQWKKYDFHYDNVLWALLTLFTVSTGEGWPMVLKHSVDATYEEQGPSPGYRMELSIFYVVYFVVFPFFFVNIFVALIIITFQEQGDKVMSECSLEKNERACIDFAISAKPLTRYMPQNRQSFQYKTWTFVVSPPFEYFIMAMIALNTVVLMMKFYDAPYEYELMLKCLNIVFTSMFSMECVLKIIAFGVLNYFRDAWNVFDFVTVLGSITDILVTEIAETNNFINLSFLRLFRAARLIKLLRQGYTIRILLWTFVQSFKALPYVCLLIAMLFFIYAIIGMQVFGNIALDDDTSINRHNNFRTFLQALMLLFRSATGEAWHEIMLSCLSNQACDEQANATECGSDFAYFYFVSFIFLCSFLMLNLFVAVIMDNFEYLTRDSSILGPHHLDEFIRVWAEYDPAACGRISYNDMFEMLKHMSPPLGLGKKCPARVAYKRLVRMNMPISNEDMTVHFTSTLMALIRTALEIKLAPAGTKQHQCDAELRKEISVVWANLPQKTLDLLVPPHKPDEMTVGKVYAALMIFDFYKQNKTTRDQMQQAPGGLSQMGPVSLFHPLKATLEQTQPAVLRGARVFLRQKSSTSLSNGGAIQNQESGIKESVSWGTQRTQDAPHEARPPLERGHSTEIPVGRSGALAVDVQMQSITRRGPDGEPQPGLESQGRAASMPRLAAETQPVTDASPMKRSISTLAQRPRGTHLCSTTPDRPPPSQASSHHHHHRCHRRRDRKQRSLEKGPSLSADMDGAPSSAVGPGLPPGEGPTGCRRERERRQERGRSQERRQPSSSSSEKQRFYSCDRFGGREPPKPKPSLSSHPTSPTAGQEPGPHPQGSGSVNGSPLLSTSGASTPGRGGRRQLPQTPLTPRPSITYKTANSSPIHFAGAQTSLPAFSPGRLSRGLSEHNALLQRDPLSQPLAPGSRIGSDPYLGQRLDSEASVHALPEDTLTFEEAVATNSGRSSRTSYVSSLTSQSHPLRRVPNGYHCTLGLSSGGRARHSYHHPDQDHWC
T1 sequence (Q02410 whole entry): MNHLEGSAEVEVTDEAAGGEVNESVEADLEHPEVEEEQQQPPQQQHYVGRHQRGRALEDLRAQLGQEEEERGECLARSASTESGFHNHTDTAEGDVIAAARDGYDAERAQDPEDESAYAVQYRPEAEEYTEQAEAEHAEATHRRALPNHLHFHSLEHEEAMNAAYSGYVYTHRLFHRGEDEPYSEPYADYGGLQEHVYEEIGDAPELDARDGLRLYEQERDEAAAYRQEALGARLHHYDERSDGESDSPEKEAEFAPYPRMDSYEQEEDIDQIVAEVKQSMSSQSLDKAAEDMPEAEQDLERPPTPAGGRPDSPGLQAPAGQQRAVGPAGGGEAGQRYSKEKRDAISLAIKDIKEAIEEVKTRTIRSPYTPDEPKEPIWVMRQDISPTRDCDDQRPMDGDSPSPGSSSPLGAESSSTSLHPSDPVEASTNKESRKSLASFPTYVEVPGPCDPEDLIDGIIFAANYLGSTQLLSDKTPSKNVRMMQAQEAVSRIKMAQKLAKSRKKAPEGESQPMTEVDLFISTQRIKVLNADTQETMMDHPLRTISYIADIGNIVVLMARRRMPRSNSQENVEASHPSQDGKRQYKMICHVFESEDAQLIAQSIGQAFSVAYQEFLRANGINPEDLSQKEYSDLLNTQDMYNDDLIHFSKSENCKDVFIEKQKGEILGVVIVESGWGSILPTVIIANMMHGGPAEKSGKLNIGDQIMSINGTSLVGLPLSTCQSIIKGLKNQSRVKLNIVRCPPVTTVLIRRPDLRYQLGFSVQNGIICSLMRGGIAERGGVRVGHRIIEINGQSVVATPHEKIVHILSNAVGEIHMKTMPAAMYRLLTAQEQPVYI

[2] = molecular target: T1, Voltage-gated N-type calcium channel alpha-1B subunit/Amyloid beta A4 precursor protein-binding family A member 1; format: protein assay
Cytochrome P450 2C9 = Cytochrome P450 2C9 (Homo sapiens, UniProt P11712)
[3] = molecular target: T1, Voltage-gated N-type calcium channel alpha-1B subunit/Amyloid beta A4 precursor protein-binding family A member 1; format: protein assay; remark: listed apart in the source
Large T antigen = Large T antigen (Simian virus 40, UniProt P03070); format: functional, Betapolyomavirus macacae;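 also: Confirmatory-stage PubChem screen for compounds that inhibit SV40 T antigen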
Sequence of Large T antigen (P03070 whole entry): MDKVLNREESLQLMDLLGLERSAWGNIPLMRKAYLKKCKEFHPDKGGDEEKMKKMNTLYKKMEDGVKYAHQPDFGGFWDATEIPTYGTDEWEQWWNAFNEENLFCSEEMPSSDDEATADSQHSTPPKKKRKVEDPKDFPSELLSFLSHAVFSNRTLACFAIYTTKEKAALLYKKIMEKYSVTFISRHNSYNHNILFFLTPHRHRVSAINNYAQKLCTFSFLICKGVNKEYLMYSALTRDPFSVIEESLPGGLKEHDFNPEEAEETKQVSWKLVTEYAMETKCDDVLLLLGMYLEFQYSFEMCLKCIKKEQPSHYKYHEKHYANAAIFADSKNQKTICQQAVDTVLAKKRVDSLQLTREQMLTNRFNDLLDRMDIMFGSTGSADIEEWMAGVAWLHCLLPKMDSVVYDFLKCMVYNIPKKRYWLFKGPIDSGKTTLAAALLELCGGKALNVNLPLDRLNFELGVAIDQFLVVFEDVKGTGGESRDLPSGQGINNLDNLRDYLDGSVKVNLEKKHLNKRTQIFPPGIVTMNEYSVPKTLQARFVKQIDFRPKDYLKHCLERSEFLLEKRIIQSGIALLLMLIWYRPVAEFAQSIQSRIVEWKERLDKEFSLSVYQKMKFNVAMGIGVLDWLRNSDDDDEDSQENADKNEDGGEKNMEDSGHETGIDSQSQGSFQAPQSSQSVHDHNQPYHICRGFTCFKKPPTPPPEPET

Cytochrome P450 2C19 = Cytochrome P450 2C19 (Homo sapiens, UniProt P33261); assay: Cytochrome panel assay with activity outcomes. Panel member name: p450-cyp2c19 Compounds with AC50 equal or less than 10 uM are considered active; format: functional; conditions: read-out: AC50
[4] = molecular target: Nucleotide-binding oligomerization domain-containing protein 2 (Homo sapiens, UniProt Q9HC29); assay: PubChem AID 2334; format: functional
HEK293 = assay: cells; conditions: Homo sapiens;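 also: cells exposed to compound for 14 hours overnight before viability readout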
Tumor necrosis factor = Tumor necrosis factor (Homo sapiens, UniProt P01375); assay: analog potency on TNFa NF-kB signaling – cell-based, revised, SAR follow-up (AID 2337); format: functional
[5] = molecular target: T2, Nucleotide-binding oligomerization domain-containing protein 1 (Homo sapiens, UniProt Q9Y239); assay: blockers of NOD1 pathway activity – revised, SAR follow-up (AID 2333); format: functional
T2 sequence (Q9Y239 whole entry): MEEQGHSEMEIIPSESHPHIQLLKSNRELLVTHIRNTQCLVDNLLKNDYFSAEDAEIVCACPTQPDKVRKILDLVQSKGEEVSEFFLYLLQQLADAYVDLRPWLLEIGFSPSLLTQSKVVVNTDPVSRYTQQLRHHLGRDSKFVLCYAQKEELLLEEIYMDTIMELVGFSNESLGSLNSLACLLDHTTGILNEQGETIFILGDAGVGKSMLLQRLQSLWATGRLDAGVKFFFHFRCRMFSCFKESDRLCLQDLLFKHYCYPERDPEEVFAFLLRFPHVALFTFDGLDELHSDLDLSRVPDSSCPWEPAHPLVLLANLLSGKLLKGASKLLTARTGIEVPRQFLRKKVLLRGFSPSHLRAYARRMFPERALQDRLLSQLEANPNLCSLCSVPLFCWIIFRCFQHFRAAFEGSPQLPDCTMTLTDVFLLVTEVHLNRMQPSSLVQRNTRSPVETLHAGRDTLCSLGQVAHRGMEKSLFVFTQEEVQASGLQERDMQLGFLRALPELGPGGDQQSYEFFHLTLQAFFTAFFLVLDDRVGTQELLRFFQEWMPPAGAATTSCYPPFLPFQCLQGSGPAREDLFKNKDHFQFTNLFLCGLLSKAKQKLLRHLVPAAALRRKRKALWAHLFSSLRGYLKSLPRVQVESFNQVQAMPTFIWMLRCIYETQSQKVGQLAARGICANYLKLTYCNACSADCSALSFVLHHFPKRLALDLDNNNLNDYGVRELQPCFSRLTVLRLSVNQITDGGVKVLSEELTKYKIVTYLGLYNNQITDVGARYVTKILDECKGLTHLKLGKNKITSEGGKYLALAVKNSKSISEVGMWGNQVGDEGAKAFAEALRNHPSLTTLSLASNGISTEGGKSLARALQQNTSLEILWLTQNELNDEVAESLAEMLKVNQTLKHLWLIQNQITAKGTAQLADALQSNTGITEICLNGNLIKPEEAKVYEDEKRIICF

[6] = molecular target: Scavenger receptor class B member 1 (Mus musculus, UniProt Q61009); assay: mouse SR-BI DiI-HDL uptake blockers – ldlA[mSR-BI] cells, fluorescence, cherry pick, dose response (AID 493194); format: functional, cell-based;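 also: cellular uptake of fluorescent DiI-labeled HDL measured as cell fluorescence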
Salmon testes DNA = assay: acridine orange-DNA binding displacement – biochemical, fluorescence polarization, cherry-picked samples, set 2, artefact control for KSHV LANA DNA-binding inhibitor project, dose response (AID 504727); parameters: species or system Salmonidae
ORF 73 = ORF 73 (Human herpesvirus 8, UniProt O40947); assay: KSHV LANA DNA-binding disruption – biochemical, fluorescence polarization, cherry-picked samples, dose response (AID 504725); parameters: species or system Human gammaherpesvirus 8;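 also: fluorescence polarization of a labeled DNA duplex reporting LANA DNA binding; potency is for inhibitors that block LANA binding to the DNA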
Keap1/Nrf2 = Keap1/Nrf2 (Homo sapiens, UniProt Q14145); assay: disruptors of Keap1 binding to Nrf2 peptide – biochemical, fluorescence polarization, cherry-picked samples, dose response (AID 588683)
Sequence of Keap1/Nrf2 (Q16236 whole entry): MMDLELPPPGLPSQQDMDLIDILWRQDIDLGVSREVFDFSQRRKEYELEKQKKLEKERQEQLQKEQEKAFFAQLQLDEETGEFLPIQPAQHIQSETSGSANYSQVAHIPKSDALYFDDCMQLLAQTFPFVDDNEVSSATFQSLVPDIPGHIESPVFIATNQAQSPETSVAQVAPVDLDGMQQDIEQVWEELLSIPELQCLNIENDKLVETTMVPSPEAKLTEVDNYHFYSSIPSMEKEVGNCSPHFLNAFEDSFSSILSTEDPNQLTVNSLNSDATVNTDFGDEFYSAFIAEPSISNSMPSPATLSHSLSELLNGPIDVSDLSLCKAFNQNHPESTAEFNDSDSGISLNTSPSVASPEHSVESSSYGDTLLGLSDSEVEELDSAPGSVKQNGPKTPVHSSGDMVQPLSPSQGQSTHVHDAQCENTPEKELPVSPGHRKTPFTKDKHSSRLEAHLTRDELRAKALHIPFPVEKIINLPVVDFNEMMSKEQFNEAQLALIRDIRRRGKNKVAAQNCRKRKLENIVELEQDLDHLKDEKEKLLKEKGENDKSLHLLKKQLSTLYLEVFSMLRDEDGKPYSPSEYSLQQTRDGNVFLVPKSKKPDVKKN
Sequence of Keap1/Nrf2 (Q14145 whole entry): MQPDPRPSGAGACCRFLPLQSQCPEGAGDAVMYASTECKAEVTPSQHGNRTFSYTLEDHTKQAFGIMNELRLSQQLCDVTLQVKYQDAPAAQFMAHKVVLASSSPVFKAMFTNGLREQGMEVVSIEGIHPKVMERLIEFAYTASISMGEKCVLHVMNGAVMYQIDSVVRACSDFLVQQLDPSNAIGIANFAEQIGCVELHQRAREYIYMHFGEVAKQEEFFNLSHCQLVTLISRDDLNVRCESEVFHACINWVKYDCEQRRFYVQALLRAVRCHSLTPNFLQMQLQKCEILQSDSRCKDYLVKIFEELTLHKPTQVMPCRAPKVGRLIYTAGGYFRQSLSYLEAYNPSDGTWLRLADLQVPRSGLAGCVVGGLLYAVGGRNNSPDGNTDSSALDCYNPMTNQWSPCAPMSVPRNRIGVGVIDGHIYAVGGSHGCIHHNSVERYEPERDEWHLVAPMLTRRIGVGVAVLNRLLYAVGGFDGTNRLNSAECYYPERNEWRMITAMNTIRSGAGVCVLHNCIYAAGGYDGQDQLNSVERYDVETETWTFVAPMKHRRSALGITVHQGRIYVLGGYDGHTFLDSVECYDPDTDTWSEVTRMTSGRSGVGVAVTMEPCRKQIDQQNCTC

[7] = molecular target: T1, Voltage-gated N-type calcium channel alpha-1B subunit/Amyloid beta A4 precursor protein-binding family A member 1; assay: disruptors of Mint-PDZ/N-type channel peptide interaction – biochemical, HTRF, set 2, SAR follow-up (AID 434980); format: functional
[8] = molecular target: Cyclin-dependent kinase 5/CDK5 activator 1 (Homo sapiens, UniProt Q00535); assay: blockade of human CDK5 activity – biochemical, cherry-picked samples, set 2, dose response (AID 504545)

- IC50 [1]: 11.6 µM (active)
- IC50 [2]: 1.94 µM (active)
- AC50 (Cytochrome P450 2C9): 0.112 µM (inconclusive)
- IC50 [3]: 9.64 µM (active)
- IC50 (Large T antigen): 7.64 µM (active)
- AC50 (Cytochrome P450 2C19): 6.31 µM (inconclusive)
Compound: Nc1ccc(-c2nc3ccc(N)c(Cl)c3[nH]2)cc1

Compound: O=C(Nc1sc2c(c1C(=O)O)CCCC2)C(=O)N1CCOCC1
- IC50 [4]: > 20 µM (inactive)
- IC50 (HEK293): > 20 µM (inactive)
- IC50 (Tumor necrosis factor): > 20 µM (inactive)
- IC50 [5]: > 20 µM (inactive)

- AC50 [6]: 3.29 µM (active)
Compound: Cc1cc(C(=O)C(C)OC(=O)C2=NNC(=O)CC2)c(C)n1-c1ccc(OC(F)F)cc1 (stereo unspecified)

- AC50 (ORF 73): 26.6 µM (active)
- AC50 (Keap1/Nrf2): 43.4 µM (active)
Compound: Cc1oc2cc(O)ccc2c(=O)c1-c1nncn1-c1ccccc1
- AC50 (Salmon testes DNA): 49.4 µM (active)

- IC50 [7]: 24.5 µM (active)
Compound: CN1CCCC1CCNC(=O)c1cc(-c2ccco2)nc2ccccc12 (stereo unspecified)

- AC50 [8]: 2.59 µM (active)
Compound: CC(C)n1cnc2c(Nc3cccc(Cl)c3)nc(NCCCO)nc21
